Measured values published in patent US12364673B2, “Methods and compositions for treating lysosomal storage disorders: ambroxol as treatment agent for Mucopolysaccharidoses III (Sanfilippo syndrome)” (Lysosomal and Rare Disorders Research and Treatment Center, …, priority 2019, dated 2025).

Assays:
[1] = test system: N-acetyl-alpha-glucosaminidase (NAGLU); experiment: NAGLU enzyme activity in patient-derived PBMC; assay type: cell-based, human; conditions: PBMC from MPS III Type B patient, 5 days incubation
Method: PBMC were cultured for 5 days with an increasing concentration of ambroxol. […] We measured enzyme activity in PBMC (peripheral blood mononuclear cell) derived from MPS III Type B patients with NAGLU enzyme deficiency. After incubation for five days in the presence of 1, 10, and 100 μM of ambroxol, NAGLU enzyme activity was measured and compared negative control versus ambroxol incubated cells (FIG. 1). […] PBMC were cultured for 5 days with an increasing concentration of ambroxol.

PBMC [2] = experiment: Cell viability of ambroxol incubated PBMC; assay type: cell-based, human; conditions: 100 μM ambroxol
PBMC [3] = experiment: ATP production of ambroxol incubated PBMC; assay type: cell-based, human; conditions: 100 μM ambroxol
[4] = test system: heparan-alpha-glucosaminide N-acetyltransferase (HGSNAT); experiment: HGSNAT enzyme activity in PBMC; assay type: cell-based, human
Method: PBMC were cultured for 5 days with an increasing concentration of ambroxol.
HGSNAT enzyme activity was measured and compared as negative control versus ambroxol incubated PBMC derived from a patient with MPS III Type C (FIG. 2).

[5] = test system: autophagy fusion with the lysosome; experiment: Autophagy fusion staining with DALGreen detection reagent; assay type: cell-based, human
acidic lysosomes = experiment: Lysosome staining with LysoTracker Red DND-99 dye; assay type: cell-based, human
Method: To examine the effects of ambroxol on autophagy-lysosomal pathway, the autophagy dye […] and lysosome marker LysoTracker Red were used. […] The autophagy fusion was studied using autophagy detection reagent […] fluorescence probe stained autophagosome on late-phase autophagy when autophagosome fused with a lysosome. Lysosome organelles were analyzed using LysoTracker Red DND-99 red-fluorescent dye which stained acidic organelles in live cells. PBMC were isolated from the patient with MPS III-B disease, incubated five days with ambroxol, and then were stained. […] Macrophages derived from a patient with MPS III Type C.

heparan sulfate (HS) = experiment: Heparan sulfate ELISA in PBMC cell extracts; assay type: cell-based, human
Method: To investigate the effect of ambroxol on HS degradation, the heparin sulfate ELISA assay (Aviva Systems Siology) was assessed. PBMC derived from healthy controls and MPS III patients were incubated with a concentration of ambroxol 1, 10 and 100 μM. PBMC after five days of incubation were collected and heparan sulfate levels were measured in cells extracts.

[6] = target: T1, glucocerebrosidase (GCase) (Homo sapiens, UniProt P04062); conditions: pH 4.3, near lysosomal pH; cited from earlier work
T1 sequence (P04062 40-536): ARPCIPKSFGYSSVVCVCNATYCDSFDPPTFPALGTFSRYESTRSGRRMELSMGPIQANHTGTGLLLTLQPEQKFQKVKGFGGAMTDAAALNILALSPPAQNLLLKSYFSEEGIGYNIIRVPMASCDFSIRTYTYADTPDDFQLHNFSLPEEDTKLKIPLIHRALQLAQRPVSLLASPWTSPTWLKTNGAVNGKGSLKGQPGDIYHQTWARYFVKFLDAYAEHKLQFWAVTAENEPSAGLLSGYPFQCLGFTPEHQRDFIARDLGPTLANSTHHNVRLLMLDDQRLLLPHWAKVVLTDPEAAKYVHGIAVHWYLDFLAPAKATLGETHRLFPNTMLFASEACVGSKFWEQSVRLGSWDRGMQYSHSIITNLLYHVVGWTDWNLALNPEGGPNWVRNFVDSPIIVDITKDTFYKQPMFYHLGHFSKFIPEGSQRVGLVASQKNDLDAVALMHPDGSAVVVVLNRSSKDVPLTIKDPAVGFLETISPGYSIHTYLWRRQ

[7] = test system: lysosomal integral membrane protein-2 (LIMP-2); conditions: cited from earlier work
[8] = PBMC from patient with MPS III-B, five days with ambroxol
[9] = macrophages from patient with MPS III Type C, 5 days with ambroxol

**Q.** For Nc1c(Br)cc(Br)cc1CN[C@H]1CC[C@H](O)CC1 [ambroxol, trans-4-(2-Amino-3,5-dibromobenzylamino)-cyclohexanol], which “NAGLU enzyme activity increase vs negative control” value ([1]; 1 μM ambroxol) is on record?
**A.** 15%

**Q.** And the “NAGLU enzyme activity increase vs negative control” value ([1]; 10 μM ambroxol)?
**A.** 15%

**Q.** What about the NAGLU activity ([1]; 100 μM ambroxol) of the same compound?
**A.** Decreasing

**Q.** And the cell viability (PBMC [2])?
**A.** decreasing

**Q.** What about the ATP production (PBMC [3]) of the same compound?
**A.** inhibition

**Q.** What about the HGSNAT activity ([4]; PBMC from a healthy subject, ambroxol incubation (data not shown)) of the same compound?
**A.** no increase

**Q.** And the HGSNAT activity ([4]; PBMC from a patient with MPS III Type C, 5 days ambroxol incubation)?
**A.** no increase

**Q.** And the “autophagy fusion (DALGreen staining)” value ([5]; PBMC from healthy control, five days with ambroxol)?
**A.** significant increase

**Q.** What about the “activity of autophagy fusion (DALGreen staining)” value [5, 8] of the same compound?
**A.** increasing

**Q.** And the “autophagy fusion (DALGreen staining)” value ([5]; PBMC from two patients with MPS III-D, five days with ambroxol)?
**A.** significant increase

**Q.** And the “activity of autophagy fusion (DALGreen staining)” value [5, 9]?
**A.** increasing

**Q.** And the “proportion of acidic lysosomes (LysoTracker Red staining)” value (acidic lysosomes; [8])?
**A.** significant increasing

**Q.** And the lysosome function (acidic lysosomes; cells derived from healthy controls and MPS III-B, MPS III-C and MPS III-D patients (summary))?
**A.** activates

**Q.** And the “proportion of acidic lysosomes (LysoTracker Red staining)” value (acidic lysosomes; [9])?
**A.** significant increasing

**Q.** What about the “heparan sulfate (HS) level” value (heparan sulfate (HS); PBMC from MPS III-A patient, 5 days with ambroxol, vs negative control) of the same compound?
**A.** decreased

**Q.** And the “heparan sulfate (HS) level” value (heparan sulfate (HS); PBMC from MPS III-B patient, 5 days, 10 μM ambroxol)?
**A.** decreased

**Q.** And the “heparan sulfate (HS) level” value (heparan sulfate (HS); PBMC from MPS III-B patient, 5 days, 100 μM ambroxol)?
**A.** decreased

**Q.** And the “heparan sulfate (HS) level” value (heparan sulfate (HS); PBMC from MPS III-C patient, 5 days with ambroxol, vs negative control)?
**A.** decreasing

**Q.** What about the “heparan sulfate (HS) level” value (heparan sulfate (HS); PBMC from MPS III-D patient, 5 days, 10 μM ambroxol) of the same compound?
**A.** decreased

**Q.** What about the “heparan sulfate (HS) level” value (heparan sulfate (HS); PBMC from MPS III-D patient, 5 days, 100 μM ambroxol) of the same compound?
**A.** decreased

**Q.** And the “heparan sulfate (HS) level” value (heparan sulfate (HS); PBMC from healthy controls (n=4), 5 days with ambroxol, vs negative control)?
**A.** decreased

**Q.** And the “effect on GCase enzyme” value [6]?
**A.** activator

**Q.** What about the LIMP-2 level [7] of the same compound?
**A.** increased
